Patent US9518065B2, “IRAK inhibitors and uses thereof” (NIMBUS IRIS, INC., priority 2013, dated 2016)

Molecular target: T1, IRAK4 (Homo sapiens, UniProt Q9NWZ3)
T1 construct: purchased CARNA Bioscience 09-145
T1 sequence (Q9NWZ3 1-460): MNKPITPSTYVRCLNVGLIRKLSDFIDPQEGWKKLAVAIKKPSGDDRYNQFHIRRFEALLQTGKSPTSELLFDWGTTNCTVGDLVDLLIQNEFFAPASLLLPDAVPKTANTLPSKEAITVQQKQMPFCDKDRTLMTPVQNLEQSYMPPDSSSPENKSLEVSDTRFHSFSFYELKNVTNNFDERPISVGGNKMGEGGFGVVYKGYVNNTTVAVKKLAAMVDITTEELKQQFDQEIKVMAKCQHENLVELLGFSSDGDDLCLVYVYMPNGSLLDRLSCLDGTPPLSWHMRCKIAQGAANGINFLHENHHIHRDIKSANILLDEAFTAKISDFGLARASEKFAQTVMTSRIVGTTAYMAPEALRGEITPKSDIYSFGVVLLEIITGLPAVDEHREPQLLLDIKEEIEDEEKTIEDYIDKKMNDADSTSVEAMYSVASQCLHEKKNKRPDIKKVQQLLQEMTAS
Test: IRAK-4 activity inhibition assay (Caliper)
Assay type: biochemical
Conditions: 3.5 nM IRAK4, 37 μM ATP, 1.5 μM Peptide 8
Protocol: A 1× kinase base buffer was prepared from 50 mM HEPES, pH 7.5 and 0.0015% Brij-35. A stop buffer was prepared from 100 mM HEPES, pH 7.5, 0.015% Brij-35, 0.2% Coating Reagent #3, and 50 mM EDTA.
Test compound was diluted to 50× of the final desired highest inhibitor concentration in reaction by 100% DMSO. 100 ul of this compound dilution was transferred to a well in a 96-well plate. For example, if desired highest inhibitor concentration in IC50 determination is 100 uM, then prepare 5000 uM of compound DMSO solution in this step.
Test compound was serially diluted by transferring 30 μl to 60 μl of 100% DMSO in the next well and so forth for a total of 10 concentrations. 100 μl of 100% DMSO was added to two empty wells for no compound control and no enzyme control in the same 96-well plate.
A new 96-well plate was marked as intermediate plate. 5 μl of compound serial dilution was transferred from source plate to the corresponding wells of the intermediate plate. 45 μl of 1× kinase base buffer (KB buffer) was added to each well of the intermediate plate. The intermediate plate was placed for 10 min on a shaker.
5 μl of each well was transferred from the 96-well intermediate plate to a 384-well plate in duplicates. For example, A1 of the 96-well plate is transferred to A1 and A2 of the 384-well plate. A2 of the 96-well plate is transferred to A3 and A4 of the 384-well plate, and so on.
IRAK4 and DTT in 1× kinase base buffer was added. The 2.5× enzyme mix contained 8.8 nM IRAK4 and 5 mM DTT.
Peptide 8, ATP, MgCl2 and MnCl2 were added in the 1× kinase base buffer. The 2.5× peptide mix contained 3.75 μM peptide 8, 92.5 μM ATP, 12.5 mM MgCl2 and 2.5 mM MnCl2.
Assay plate already contained 5 μl of compound in 10% DMSO. Added 10 μl of 2.5× enzyme solution to each well of the 384-well assay plate, except no enzyme control wells. The final concentration of IRAK4 in reaction was 3.5 nM. Added 10 μl of 1× kinase base buffer to no enzyme control wells in the assay plate. Incubated at room temperature for 10 min.
Added 10 μl of 2.5× peptide solution to each well of the 384-well assay plate. The final concentration of Peptide 8 and ATP was 1.5 μM and 37 μM, respectively. Incubated at 28° C. for 40 minutes. Added 25 μl of stop buffer to stop reaction. Collected data on Caliper.
Copied conversion % data from Caliper program. Converted conversion % values to percent inhibition values. Percent inhibition=(max-conversion %)/(max-min)*100, where “max” means the conversion % of DMSO control and “min” means the conversion % of no enzyme control.
The compound numbers correspond to the compound numbers in Table 1. Compounds having an activity designated as “A” provided an IC50≦1 μM; compounds having an activity designated as “B” provided an IC50 of 1-5 μM; compounds having an activity designated as “C” provided an IC50 of ≧5 μM. “NA” stands for “not assayed.”

Row | IC50 | Structure (SMILES)
1 | ≤ 1000 nM | [2H]C([2H])([2H])c1nc2c(N[C@H]3CC[C@H](N4CCOCC4)CC3)nc(Nc3cnn(C)c3)nc2s1 [Compound I-58, 2-(methyl-d3)-N5-(1-methyl-1H-pyrazol-4-yl)-N7-((1r,4r)-4-morpholinocyclohexyl)thiazolo[5,4-d]pyrimidine-5,7-diamine]
2 | ≤ 1000 nM | Cn1cc(Nc2nc(N[C@H]3CC[C@H](N4CCOCC4)CC3)c3nc(C(F)F)sc3n2)cn1 [Compound I-45, 2-(difluoromethyl)-N5-(1-methyl-1H-pyrazol-4-yl)-N7-((1r,4r)-4-morpholinocyclohexyl)thiazolo[5,4-d]pyrimidine-5,7-diamine]
3 | ≤ 1000 nM | Cc1nc2c(O[C@H]3CC[C@H](N4CCOCC4)CC3)nc(Nc3cnn(C(C)C)c3)nc2s1 [Compound I-57, N-(1-isopropyl-1H-pyrazol-4-yl)-2-methyl-7-(((1r,4r)-4-morpholino-cyclohexyl)oxy)thiazolo[5,4-d]pyrimidin-5-amine]
4 | 1000 to 5000 nM | CC(C)c1nc2c(N[C@H]3CC[C@H](N(C)C)CC3)ncnc2s1 [Compound I-2, (1r,4r)-N-1-(2-isopropylthiazolo[5,4-d]pyrimidin-7-yl)-N4,N4-dimethylcyclohexane-1,4-diamine]
5 | 1000 to 5000 nM | Cc1nc2c(N[C@H]3CC[C@H](N(C)C)CC3)ncnc2s1 [Compound I-4, (1r,4r)-N1,N1-dimethyl-N4-(2-methylthiazolo[5,4-d]pyrimidin-7-yl)cyclo-hexane-1,4-diamine]
6 | 1000 to 5000 nM | CCc1nsc2ncnc(N[C@H]3CC[C@H](N4CCOCC4)CC3)c12 [Compound I-20, 3-ethyl-N-((1r,4r)-4-morpholinocyclohexyl)isothiazolo[5,4-d]pyrimidin-4-amine]
7 | ≤ 1000 nM | Cn1cc(Nc2nc(N[C@H]3CC[C@H](N4CCOCC4)CC3)c3nc(C4CC4)sc3n2)cn1 [Compound I-49, 2-cyclopropyl-N5-(1-methyl-1H-pyrazol-4-yl)-N7-((1r,4r)-4-morpholinocyclohexyl)thiazolo[5,4-d]pyrimidine-5,7-diamine]
8 | 1000 to 5000 nM | CCc1nc2c(N[C@H]3CC[C@H](N4CCC(F)(F)CC4)CC3)nc(Nc3cnn(C)c3)nc2s1 [Compound I-11, N7-((1r,4r)-4-(4,4-difluoropiperidin-1-yl)cyclohexyl)-2-ethyl-N5-(1-methyl-1H-pyrazol-4-yl)thiazolo[5,4-d]pyrimidine-5,7-diamine]
9 | ≥ 5000 nM | CCc1nc2c(N[C@H]3CC[C@H](N4CCOCC4)CC3)nc(N)nc2s1 [Compound I-31, 2-ethyl-N7-((1r,4r)-4-morpholinocyclohexyl)thiazolo[5,4-d]pyrimidine-5,7-diamine]
10 | 1000 to 5000 nM | CCc1nc2c(N[C@H]3CC[C@H](N4CCOCC4)CC3)ncnc2s1 [Compound I-5, 2-ethyl-N-((1r,4r)-4-morpholinocyclohexyl)thiazolo[5,4-d]pyrimidin-7-amine]
11 | ≤ 1000 nM | Cn1cc(Nc2nc(N[C@H]3CC[C@H](N4CCOCC4)CC3)c3nc(C(F)(F)F)sc3n2)cn1 [Compound I-44, N5-(1-methyl-1H-pyrazol-4-yl)-N7-((1r,4r)-4-morpholino-cyclohexyl)-2-(trifluoromethyl)thiazolo[5,4-d]pyrimidine-5,7-diamine]
12 | ≥ 5000 nM | Cc1nc2c(N[C@H]3CC[C@H](N4CCOCC4)CC3)nc(N)nc2s1 [Compound I-43, 2-methyl-N7-((1r,4r)-4-morpholinocyclo-hexyl)thiazolo[5,4-d]pyrimidine-5,7-diamine]
13 | ≤ 1000 nM | CC(=O)c1nc2c(N[C@H]3CC[C@H](N4CCOCC4)CC3)nc(Nc3cnn(C)c3)nc2s1 [Compound I-41, 1-(5-((1-methyl-1H-pyrazol-4-yl)amino)-7-(((1r,4r)-4-morpholinocyclohexyl)amino)thiazolo[5,4-d]pyrimidin-2-yl)ethan-1-one]
14 | ≤ 1000 nM | Cn1cc(Nc2nc(N[C@H]3CC[C@H](N4CCOCC4)CC3)c3ncsc3n2)cn1 [Compound I-46, N5-(1-methyl-1H-pyrazol-4-yl)-N7-((1r,4r)-4-morpholinocyclo-hexyl)thiazolo[5,4-d]pyrimidine-5,7-diamine]
15 | ≥ 5000 nM | CCc1nc2c(O[C@H]3CC[C@H](N(C)C)CC3)ncnc2s1 [Compound I-3, (1r,4r)-4-((2-ethylthiazolo[5,4-d]pyrimidin-7-yl)oxy)-N,N-dimethylcyclo-hexanamine]
16 | ≥ 5000 nM | CCc1nc2c(N(CC)[C@H]3CC[C@H](N4CCOCC4)CC3)ncnc2s1 [Compound I-6, N,2-diethyl-N-((1r,4r)-4-morpholinocyclohexyl)thiazolo[5,4-d]pyrimidin-7-amine]
17 | 1000 to 5000 nM | CCc1nc2c(N[C@H]3CC[C@H](N(C)C)CC3)ncnc2s1 [Compound I-1, (1r,4r)-N1-(2-ethylthiazolo[5,4-d]pyrimidin-7-yl)-N4,N4-dimethylcyclohexane-1,4-diamine]
18 | ≤ 1000 nM | c1nc2c(N[C@H]3CC[C@H](N4CCOCC4)CC3)nc(Nc3cnn(C4CCOCC4)c3)nc2s1 [Compound I-51, N7-((1r,4r)-4-morpholinocyclohexyl)-N5-(1-(tetrahydro-2H-pyran-4-yl)-1H-pyrazol-4-yl)thiazolo[5,4-d]pyrimidine-5,7-diamine]
19 | ≤ 1000 nM | CCc1nc2c(N[C@H]3CC[C@H](N(C)CC(=O)N4CCCC4)CC3)nc(Nc3cnn(C)c3)nc2s1 [Compound I-15, 2-(((1r,4r)-4-((2-ethyl-5-((1-methyl-1H-pyrazol-4-yl)amino)-thiazolo[5,4-d]pyrimidin-7-yl)amino)cyclohexyl)(methyl)amino)-1-(pyrrolidin-1-yl)ethan-1-one]
20 | ≤ 1000 nM | OCCn1cc(Nc2nc(N[C@H]3CC[C@H](N4CCOCC4)CC3)c3ncsc3n2)cn1 [Compound I-54, 2-(4-((7-(((1r,4r)-4-morpholinocyclohexyl)amino)thiazolo[5,4-d]pyrimidin-5-yl)amino)-1H-pyrazol-1-yl)ethan-1-ol]
21 | 1000 to 5000 nM | Cn1cc(Nc2nc(N[C@H]3CC[C@H](N4CCOCC4)CC3)c3nc(C(C)(C)C)sc3n2)cn1 [Compound I-50, 2-(tert-butyl)-N5-(1-methyl-1H-pyrazol-4-yl)-N7-((1r,4r)-4-morpholinocyclohexyl)thiazolo[5,4-d]pyrimidine-5,7-diamine]
22 | ≤ 1000 nM | Cn1cc(Nc2nc(N[C@H]3CC[C@H](N4CCOCC4)CC3)c3nc(C(C)(F)F)sc3n2)cn1 [Compound I-48, 2-(1,1-difluoroethyl)-N5-(1-methyl-1H-pyrazol-4-yl)-N7-((1r,4r)-4-morpholinocyclohexyl)thiazolo[5,4-d]pyrimidine-5,7-diamine]
23 | ≤ 1000 nM | c1nc2c(N[C@H]3CC[C@H](N4CCOCC4)CC3)nc(Nc3cnn(CC4CCOCC4)c3)nc2s1 [Compound I-52, N7-((1r,4r)-4-morpholinocyclohexyl)-N5-(1-((tetrahydro-2H-pyran-4-yl)methyl)-1H-pyrazol-4-yl)thiazolo[5,4-d]pyrimidine-5,7-diamine]
24 | ≤ 1000 nM | CC(C)c1nc2c(N[C@H]3CC[C@H](N4CCOCC4)CC3)nc(Nc3cnn(C)c3)nc2s1 [Compound I-47, 2-isopropyl-N5-(1-methyl-1H-pyrazol-4-yl)-N7-((1r,4r)-4-morpholinocyclohexyl)thiazolo[5,4-d]pyrimidine-5,7-diamine]
25 | ≤ 1000 nM | CC(C)n1cc(Nc2nc(N[C@H]3CC[C@H](N4CCOCC4)CC3)c3ncsc3n2)cn1 [Compound I-53, N5-(1-isopropyl-1H-pyrazol-4-yl)-N7-((1r,4r)-4-morpholino-cyclohexyl)thiazolo[5,4-d]pyrimidine-5,7-diamine]
